Where two headings read alike, the source gives them in different places.
Key:
MCF-7 luc = assay: Clonogenic assay (clonal expansion), MCF-7 cells expressing wild-type ER; type: cell-based; conditions: Homo sapiens, MCF7, 336 h
Protocol: (§1) Cells were seeded at a density of 1–2×10^3 cells/well in a 6-well plate and treated with increasing concentrations of the X compounds for 14–21 days. Medium and compounds were renewed every 7 days. The experiments were terminated by fixing the cells with methanol and the colonies formed were visualized after staining with 0.5% crystal violet (w/v) in 20% methanol (v/v). Plates were photographed and the area covered by the colonies was calculated using the ColonyArea Plugin for Fiji (RRID:SCR_003070).[20]

MCF-7 luc Y537S = assay: Clonogenic assay (clonal expansion), MCF-7 cells with Y537S ER mutation; type: cell-based; conditions: Homo sapiens, MCF7, 336 h
Protocol: as §1

MCF-7 cells = assay: Clonogenic assay in MCF-7 cells with AHR antagonist CH223191; type: cell-based, human; conditions: MCF-7, 10 nM compound, 1 μM CH223191, 14 days
Protocol: as §1

[1] = tested on: ER+ MCF-7, ZR75–1, and T47D breast cancer cells; design: method as in PMID 37520743; conditions: previously identified ref 17; cited from earlier work
AHR-Hsp90-XAP2 = biological target: T1, AHR-Hsp90-XAP2 (Homo sapiens, UniProt P35869); assay: Thermal stability measurements (nano-DSF); type: binding; conditions: 2.5 μM protein, 12.5 μM compound
T1 construct: made in house
Protocol: Thermal denaturation experiments of AHR complexes in the presence of compounds were performed using a Tycho NT.6 instrument (NanoTemper Technologies). Protein samples were prepared as previously described[67] and subsequently diluted in the buffer containing 20 mM Bis-Tris–HCl pH 7.0, 50 mM NaCl, 10 mM KCl, 10 mM MgCl2, 20 mM Na2MoO4 and 2 mM β-mercaptoethanol to a final protein concentration of 2.5 μM. Compound stock solutions were prepared at 20 mM in DMSO and added to the protein samples to yield a final concentration of 12.5 μM. For control measurements, DMSO was added to a final concentration of 5% (v/v). Following ligand or DMSO addition, the samples were gently mixed and incubated at room temperature for 10 min to allow equilibration. Thermal denaturation profiles were acquired over a temperature range of 35°C–95°C, with a heating rate of 1 °C per min. Fluorescence was monitored at emission wavelengths of 330 nm and 350 nm, and the data were analyzed as the first derivative of the fluorescence ratio (F330/F350) as a function of temperature. All experiments were performed in triplicate, and data were analyzed using the Tycho NT.6 software (NanoTemper Technologies) according to the manufacturer’s recommendations.

hERα = biological target: T2, hERα (Homo sapiens, UniProt P03372); assay: ER/ERE luciferase reporter assay in HELN hERα cells; type: cell-based; conditions: 10 nM–10 μM compound, with E2, 24 h
T2 construct: expressed in transfected cells; host or cells: HeLa (HELN hERα)
T2 sequence (P03372 1-595): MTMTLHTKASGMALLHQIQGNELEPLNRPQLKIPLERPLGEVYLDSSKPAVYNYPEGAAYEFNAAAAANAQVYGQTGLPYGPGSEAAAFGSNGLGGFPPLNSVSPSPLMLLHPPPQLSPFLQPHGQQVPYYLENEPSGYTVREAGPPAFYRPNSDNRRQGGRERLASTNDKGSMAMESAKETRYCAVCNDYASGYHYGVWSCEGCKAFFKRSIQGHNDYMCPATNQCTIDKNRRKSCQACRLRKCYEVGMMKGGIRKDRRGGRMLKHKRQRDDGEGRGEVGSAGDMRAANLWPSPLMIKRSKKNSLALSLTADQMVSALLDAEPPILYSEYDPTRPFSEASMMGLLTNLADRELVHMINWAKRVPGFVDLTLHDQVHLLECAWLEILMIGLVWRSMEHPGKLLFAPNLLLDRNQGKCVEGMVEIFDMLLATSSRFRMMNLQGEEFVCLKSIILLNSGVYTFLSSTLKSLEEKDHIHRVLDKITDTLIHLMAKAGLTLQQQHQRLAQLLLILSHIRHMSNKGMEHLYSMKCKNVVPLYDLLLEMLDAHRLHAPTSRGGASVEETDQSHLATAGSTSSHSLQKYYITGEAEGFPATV
Source text: To characterize the chemical induced AHR activity, we used the already established HAHLH reporter cell lines obtained by stably expression of HeLa cells with the dioxin-responsive gene XRE(TnGCGTG)3-tata-luciferase-Luc-hygromycin plasmid.[29] The reporter HELN hERα cell line was obtained by transfecting human HeLa cells with the ERE-responsive gene ERE-βGlobin-luciferase-Luc-neomycin and the pSG5-hERα-puromycin plasmids as previously described.[59] To determine the action of the chemical on AHR and hERα activity, cells were seeded at a density of 50,000 cells per well in 96-well white opaque tissue culture plates (Greiner CellStar) in 150 μL of Dulbecco’s Modified Eagle Medium: Nutrient Mixture F-12 (DMEM/F- 12) without phenol red and 1 g/L glucose and supplemented with 5% stripped fetal bovine serum, 100 units/mL of penicillin, 100 μg/mL of streptomycin (test medium). Twenty-four hours later, chemicals to be tested were added at 4x concentration in culture medium, and cells were incubated at 37 °C for 8 h (HAhLH cells) or 24 h (HELN hERα cells). At the end of the incubation period, culture medium was replaced with test medium containing 0.3 mM luciferin and luciferase activity was measured for 2 s in intact living cells using a MicroBeta Wallac luminometer (PerkinElmer). Tests were performed in quadruplicate at 4x concentration in the same medium in at least 4 independent experiments. Results were expressed as % of the maximal luciferase activity. […] Effective concentration (ECs) for a given compound, EC50 is defined as the concentration inducing 50% of its maximal effect. The EC50 values were calculated including the adjustment for the basal activity of the cell line.

[2] = Figure 1B, MCF-7 luc, absence of E2, 14 days
[3] = Figure 1C, MCF-7 luc + 10 nM E2, 14 days

T1 sequence (P35869 11-437 limits assumed): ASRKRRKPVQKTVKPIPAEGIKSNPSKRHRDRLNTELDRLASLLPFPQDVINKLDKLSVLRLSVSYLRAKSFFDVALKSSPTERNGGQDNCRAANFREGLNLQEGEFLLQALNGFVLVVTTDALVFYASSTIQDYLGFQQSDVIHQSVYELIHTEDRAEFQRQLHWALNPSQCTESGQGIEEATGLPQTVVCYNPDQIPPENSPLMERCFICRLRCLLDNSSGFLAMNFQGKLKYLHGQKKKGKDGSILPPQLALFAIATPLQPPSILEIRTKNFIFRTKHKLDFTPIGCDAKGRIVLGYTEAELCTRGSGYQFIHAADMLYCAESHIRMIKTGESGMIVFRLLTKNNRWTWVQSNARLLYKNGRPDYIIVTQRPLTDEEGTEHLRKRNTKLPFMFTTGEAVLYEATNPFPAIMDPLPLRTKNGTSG
T1 sequence (P08238 whole entry partner): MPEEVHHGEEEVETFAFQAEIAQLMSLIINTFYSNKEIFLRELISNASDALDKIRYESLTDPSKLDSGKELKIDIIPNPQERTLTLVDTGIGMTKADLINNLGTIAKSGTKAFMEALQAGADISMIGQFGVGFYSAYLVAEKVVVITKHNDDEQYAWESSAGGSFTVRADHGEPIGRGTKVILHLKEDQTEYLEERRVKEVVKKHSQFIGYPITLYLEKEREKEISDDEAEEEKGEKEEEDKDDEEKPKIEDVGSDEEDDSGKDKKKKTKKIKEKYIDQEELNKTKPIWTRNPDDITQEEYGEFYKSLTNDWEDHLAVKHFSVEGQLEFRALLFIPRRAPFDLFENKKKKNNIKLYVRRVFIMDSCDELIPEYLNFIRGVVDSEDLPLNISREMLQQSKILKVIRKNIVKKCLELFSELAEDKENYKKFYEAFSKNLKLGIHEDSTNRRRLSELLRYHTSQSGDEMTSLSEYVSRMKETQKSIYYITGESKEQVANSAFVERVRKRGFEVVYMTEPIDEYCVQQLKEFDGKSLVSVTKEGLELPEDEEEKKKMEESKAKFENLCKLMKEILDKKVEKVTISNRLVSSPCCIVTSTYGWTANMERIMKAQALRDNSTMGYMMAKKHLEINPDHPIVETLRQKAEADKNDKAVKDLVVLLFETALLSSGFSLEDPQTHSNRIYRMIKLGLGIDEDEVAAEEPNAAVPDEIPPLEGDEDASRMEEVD
T1 sequence (O00170 whole entry partner): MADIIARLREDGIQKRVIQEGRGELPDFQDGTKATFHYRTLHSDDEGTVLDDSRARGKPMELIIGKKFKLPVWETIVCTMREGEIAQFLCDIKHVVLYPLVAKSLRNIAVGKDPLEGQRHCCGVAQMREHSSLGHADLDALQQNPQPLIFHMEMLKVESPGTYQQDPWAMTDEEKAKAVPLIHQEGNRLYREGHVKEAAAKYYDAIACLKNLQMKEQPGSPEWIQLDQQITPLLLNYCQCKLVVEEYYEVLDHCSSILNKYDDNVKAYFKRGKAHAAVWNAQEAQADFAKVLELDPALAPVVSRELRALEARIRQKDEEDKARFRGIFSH

| SMILES | IC50 (MCF-7 luc; [2]) [nM] | IC50 (MCF-7 luc; [3]) [nM] | IC50 (MCF-7 luc; Figure 1D, MCF-7 luc, absence of E2, 14 days) [nM] | IC50 (MCF-7 luc; Figure 1E, MCF-7 luc + 10 nM E2, 14 days) [nM] | IC50 (MCF-7 luc Y537S; read-out: IC50 clonal expansion, Figure 1B, MCF-7 luc Y537S, absence of E2, 14 days) [nM] | IC50 (MCF-7 luc Y537S; read-out: IC50 clonal expansion, Figure 1C, MCF-7 luc Y537S + 10 nM E2, 14 days) [nM] | IC50 (MCF-7 luc Y537S; read-out: IC50 clonal expansion, Figure 1D, MCF-7 luc Y537S, absence of E2, 14 days) [nM] | IC50 (MCF-7 luc Y537S; read-out: IC50 clonal expansion, Figure 1E, MCF-7 luc Y537S + 10 nM E2, 14 days) [nM] | inhibition of colony expansion in the presence of AHR antagonist CH223191 (MCF-7 cells) | Inhibition of Proliferation [1] | thermal stabilization of AHR (nano-DSF) (AHR-Hsp90-XAP2) | transcription activity of ERα (reporter) (hERα) |
| --- | --- | --- | --- | --- | --- | --- | --- | --- | --- | --- | --- | --- |
| Fc1ccc(-c2cn3cc(C(F)(F)F)cc(Cl)c3n2)cc1 [X15695] | 2.45 | 7.96 | 2.45 | 7.96 | 7.82 | 6.41 | 7.82 | 6.41 | clearly abrogated by the AHR antagonist CH223191 | Yes | bona fide AHR ligands | reduced |
| Cc1cc(Cl)c2nc(-c3ccc(F)cc3)cn2c1 [X19724] | 7.41 | 15.2 | – | – | – | – | – | – | to a lesser extent | Yes | bona fide AHR ligands | reduced |
| Cc1cc(Cl)c2nc(-c3ccccc3)cn2c1 [X19728] | – | 10.3 | – | – | – | – | – | – | no effect on colony formation | Yes | bona fide AHR ligands | reduced |

Reference: PMC13197777, “Distinct 2-phenylimidazo[1,2-a]pyridine derivatives that inhibit breast cancer cell proliferation identified as AHR ligands” (iScience, 2026)
